± gives the expanded uncertainty stated by the source.
Legend:
[1] = 101.33 kPa, Liquid; for speed of sound: Sing-around technique in a fixed-path interferometer
[2] = xn = mol fraction of the nth substance listed; details: 101 kPa, Liquid, Sing-around technique in a fixed-path interferometer

C1COCO1 [1,3-dioxolane]
[1]
Details	mass density [kg/m3]	speed of sound [m/s]
283.15 K	1077.1 ± 0.9	1406.3 ± 2.3
298.15 K	1058.8 ± 0.9	1339.9 ± 2.3
313.15 K	1040.2 ± 0.8	1271.6 ± 2.3

C1CCCC1 [cyclopentane] + C1COCO1
[2]
Details	speed of sound [m/s]
283.15 K, x2 = 0.101	1277.3 ± 2.3
283.15 K, x2 = 0.2019	1275.8 ± 2.3
283.15 K, x2 = 0.3024	1278.6 ± 2.3
283.15 K, x2 = 0.4023	1285 ± 2.3
283.15 K, x2 = 0.5028	1295.3 ± 2.3
283.15 K, x2 = 0.6	1307.9 ± 2.3
283.15 K, x2 = 0.6995	1325.7 ± 2.3
283.15 K, x2 = 0.796	1347.3 ± 2.3
283.15 K, x2 = 0.8999	1375.7 ± 2.3
298.15 K, x2 = 0.0998	1201.4 ± 2.3
298.15 K, x2 = 0.1993	1200.8 ± 2.3
298.15 K, x2 = 0.3005	1204.5 ± 2.3
298.15 K, x2 = 0.4041	1212 ± 2.3
298.15 K, x2 = 0.5024	1222.7 ± 2.3
298.15 K, x2 = 0.6002	1236.4 ± 2.3
298.15 K, x2 = 0.7004	1255.5 ± 2.3
298.15 K, x2 = 0.7988	1278.8 ± 2.3
298.15 K, x2 = 0.8992	1307.4 ± 2.3
313.15 K, x2 = 0.1028	1125.3 ± 2.3
313.15 K, x2 = 0.2032	1125.9 ± 2.3
313.15 K, x2 = 0.3014	1130.2 ± 2.3
313.15 K, x2 = 0.403	1138.5 ± 2.3
313.15 K, x2 = 0.5008	1150 ± 2.3
313.15 K, x2 = 0.6008	1165.5 ± 2.3
313.15 K, x2 = 0.6991	1184.8 ± 2.3
313.15 K, x2 = 0.7991	1209 ± 2.3
313.15 K, x2 = 0.8987	1237.8 ± 2.3

C1CCCCC1 [cyclohexane]
[1]
Details	mass density [kg/m3]	speed of sound [m/s]
283.15 K	788 ± 0.3	1327.8 ± 2.1
298.15 K	773.7 ± 0.3	1254.4 ± 2.1
313.15 K	759.6 ± 0.3	1181.1 ± 2.1

C1CCCC1 [cyclopentane]
[1]
Details	mass density [kg/m3]	speed of sound [m/s]
283.15 K	754.9 ± 1.5	1283.5 ± 2.3
298.15 K	739.7 ± 1.5	1206.6 ± 2.3
313.15 K	724.7 ± 1.6	1129.9 ± 2.3

C1COCO1 [1,3-dioxolane] + C1CCCCC1
[2]
Details	speed of sound [m/s]
283.15 K, x1 = 0.1044	1322 ± 2.1
283.15 K, x1 = 0.2011	1317.6 ± 2.1
283.15 K, x1 = 0.3005	1315.4 ± 2.1
283.15 K, x1 = 0.4009	1316 ± 2.1
283.15 K, x1 = 0.4998	1319.7 ± 2.2
283.15 K, x1 = 0.602	1327.3 ± 2.2
283.15 K, x1 = 0.7002	1339 ± 2.2
283.15 K, x1 = 0.7989	1355.7 ± 2.3
283.15 K, x1 = 0.8989	1377.7 ± 2.3
298.15 K, x1 = 0.0998	1245.1 ± 2.1
298.15 K, x1 = 0.2014	1240 ± 2.1
298.15 K, x1 = 0.3019	1238.7 ± 2.1
298.15 K, x1 = 0.4043	1240.5 ± 2.1
298.15 K, x1 = 0.4993	1245.3 ± 2.2
298.15 K, x1 = 0.6028	1254.2 ± 2.2
298.15 K, x1 = 0.6998	1266.9 ± 2.2
298.15 K, x1 = 0.8003	1284.9 ± 2.2
298.15 K, x1 = 0.8992	1308.9 ± 2.3
313.15 K, x1 = 0.1213	1172.5 ± 2.1
313.15 K, x1 = 0.2006	1167.6 ± 2.1
313.15 K, x1 = 0.2996	1166.6 ± 2.1
313.15 K, x1 = 0.3996	1168.8 ± 2.1
313.15 K, x1 = 0.5009	1174.2 ± 2.2
313.15 K, x1 = 0.6	1183.2 ± 2.2
313.15 K, x1 = 0.6979	1196.3 ± 2.2
313.15 K, x1 = 0.7987	1215.2 ± 2.2
313.15 K, x1 = 0.8991	1240 ± 2.3

C1CCCC1 [cyclopentane] + C1COCCO1
[2]
Details	speed of sound [m/s]
283.15 K, x2 = 0.0516	1280.7 ± 2.3
283.15 K, x2 = 0.095	1279.4 ± 2.3
283.15 K, x2 = 0.1944	1280.5 ± 2.2
283.15 K, x2 = 0.2987	1286 ± 2.2
283.15 K, x2 = 0.3973	1294.2 ± 2.2
283.15 K, x2 = 0.499	1305.8 ± 2.2
283.15 K, x2 = 0.6003	1320.5 ± 2.1
283.15 K, x2 = 0.7063	1339.6 ± 2.1
283.15 K, x2 = 0.8072	1361 ± 2.1
283.15 K, x2 = 0.9076	1385.1 ± 2.1
283.15 K, x2 = 0.9528	1397 ± 2.1
298.15 K, x2 = 0.0488	1204.5 ± 2.3
298.15 K, x2 = 0.0945	1203.8 ± 2.3
298.15 K, x2 = 0.1818	1205.5 ± 2.2
298.15 K, x2 = 0.2983	1211.9 ± 2.2
298.15 K, x2 = 0.3959	1221.4 ± 2.2
298.15 K, x2 = 0.4962	1234.1 ± 2.2
298.15 K, x2 = 0.6067	1251.5 ± 2.1
298.15 K, x2 = 0.7034	1269.8 ± 2.1
298.15 K, x2 = 0.811	1293.3 ± 2.1
298.15 K, x2 = 0.9025	1316.4 ± 2.1
298.15 K, x2 = 0.9506	1329.6 ± 2.1
313.15 K, x2 = 0.0449	1128.5 ± 2.3
313.15 K, x2 = 0.094	1128.3 ± 2.3
313.15 K, x2 = 0.195	1131.3 ± 2.2
313.15 K, x2 = 0.2962	1138.6 ± 2.2
313.15 K, x2 = 0.3969	1149.5 ± 2.2
313.15 K, x2 = 0.4983	1163.6 ± 2.1
313.15 K, x2 = 0.5994	1180.8 ± 2.1
313.15 K, x2 = 0.6987	1200.2 ± 2.1
313.15 K, x2 = 0.8026	1223.8 ± 2.1
313.15 K, x2 = 0.9066	1250.8 ± 2.1
313.15 K, x2 = 0.9482	1263 ± 2.1
